Legend:
[1] = Antiinflammatory activity in human neutrophils assessed as inhibition of formyl-L-methionyl-L-leucyl-L-phenylalanine/cytochalasin B-induced superoxide anion generation; assay type: functional, cell-based; settings: Neutrophil
[2] = Antiinflammatory activity in human neutrophils assessed as inhibition of formyl-L-methionyl-L-leucyl-L-phenylalanine/cytochalasin B-induced elastase release; assay type: functional, cell-based; settings: Neutrophil

Compound	IC50 [1] [µM]	IC50 [2] [µM]
COc1cc(=O)[nH]c2c(OC)cccc12 [EDULITINE]	38	> 50
COc1ccc2c(OC)c3ccoc3nc2c1OC [SKIMMIANINE]	13.2	19.2
c1ccc2c(c1)[I+]c1ccccc1-2 [DIPHENYLENEIODONIUM]	1.68	
COc1cc(=O)n(C)c2ccccc12	> 50	> 50
COc1cc2ccc(=O)oc2c(OC)c1OC [FRAXIDIN METHYL ETHER]	49.5	> 50
COc1cc([C@@H]2Oc3cc(/C=C/C=O)ccc3O[C@H]2CO)cc(OC)c1O	26.9	> 50
COc1cc(/C=C/C(=O)OC[C@H]2[C@@H](Cc3cc(OC)c(O)c(OC)c3)CO[C@@H]2c2cc(OC)c(O)c(OC)c2)ccc1O	33.6	> 50
COc1c2c(c3ccc(=O)oc3c1/C=C/C(C)(C)OC)OC(C)(C)C=C2 [AVICENNOL METHYL ETHER]	48.4	> 50
COc1cc([C@@H]2Oc3c(c(OC)cc4ccc(=O)oc34)O[C@H]2CO)cc(OC)c1OC	14.7	> 50
COc1cc(/C=C\C(=O)OC[C@H]2[C@@H](Cc3cc(OC)c(O)c(OC)c3)CO[C@@H]2c2cc(OC)c(O)c(OC)c2)ccc1O	28	28.9
COc1cc([C@@H]2Oc3cc(/C=C/C=O)cc(O)c3O[C@H]2CO)cc(OC)c1OC	> 50	> 50
Cn1c2ccccc2c(=O)c2ccoc21 [ISODICTAMNINE]	> 50	> 50
COc1cc([C@@H]2Oc3cc(/C=C/C=O)cc(OC)c3O[C@H]2CO)ccc1O	> 50	> 50
COc1c2ccccc2nc2occc12 [DICTAMNINE]	> 50	> 50
COc1c2c(cc3ccc(=O)oc13)C=CC(C)(C)O2 [LUVANGETIN]	> 50	> 50
O=S(=O)(F)Cc1ccccc1 [PHENYLMETHYLSULFONYLFLUORIDE]		204
COc1c2c(c3ccc(=O)oc3c1/C=C/C(C)(C)O)OC(C)(C)C=C2 [AVICENNOL]	> 50	32
COc1c2ccoc2nc2c(OC)cccc12 [GAMMA-FAGARINE]	31.3	> 50
COc1cc2ccc(=O)oc2cc1O [SCOPOLETIN]	> 50	> 50
COc1c2ccoc2nc2c(O)cccc12 [ROBUSTINE]	18.2	> 50
COc1cc([C@@H]2Oc3cc(/C=C/C=O)cc(OC)c3O[C@H]2CO)cc(OC)c1O	48.6	> 50
COc1cc2ccc(=O)oc2cc1OC [SCOPARONE]	42.9	> 50
COc1cc([C@@H]2Oc3c(c(OC)cc4ccc(=O)oc34)O[C@H]2CO)cc(OC)c1O [CLEOMISCOSIN D]	13.1	> 50
CC1(C)C=Cc2cc(/C=C/C=O)ccc2O1	> 50	> 50
COc1cc([C@@H]2OC[C@@H]3[C@H]2CO[C@H]3c2cc(OC)c(O)c(OC)c2)cc(OC)c1O	39.9	> 50
